These results are taken from patent US20170009266A1, “PROCESS FOR THE ATTACHMENT OF A GALNAC MOIETY COMPRISING A (HETERO)ARYL GROUP TO A GLCNAC MOIETY, AND PRODUCT OBTAINED THEREBY” (SYNAFFIX B.V., priority 2014, published 2017).

Changes are numbered by the printed parent chain.

Type in all cases: biochemical, bovine
The target of assay [1] is T1, Gal-T1(Y289M,C342T) (Bos taurus, UniProt P08037, C342T/Y289M).
T1 construct: host or cells: CHO K1
T1 sequence (P08037 74-402 V158I/P187L/I205M/L206V/Y289M/C342T): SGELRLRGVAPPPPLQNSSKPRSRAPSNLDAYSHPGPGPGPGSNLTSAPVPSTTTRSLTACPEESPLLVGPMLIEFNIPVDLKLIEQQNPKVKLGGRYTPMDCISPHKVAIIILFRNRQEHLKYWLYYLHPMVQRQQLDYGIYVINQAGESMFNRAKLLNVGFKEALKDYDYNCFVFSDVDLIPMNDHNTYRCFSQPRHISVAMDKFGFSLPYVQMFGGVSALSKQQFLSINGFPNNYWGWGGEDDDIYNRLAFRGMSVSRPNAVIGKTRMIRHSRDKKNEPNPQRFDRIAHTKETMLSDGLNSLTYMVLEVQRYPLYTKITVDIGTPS
Put plainly: Glycosyltransfer to trimmed trastuzumab with Gal-T1(Y289M,C342T) expressed in CHO. To be noted: trimmed trastuzumab 10 mg/mL; UDP derivative 5 mM; enzyme 1.0 mg/mL; pH 8.0, 30° C. overnight. On the procedure:
A solution of 20 μg (modified) IgG was incubated for 1 hour at 37° C. with Fabricator™ (commercially available from Genovis, Lund, Sweden) (1.25 U/μL) in phosphate-buffered saline (PBS) pH 6.6 in a total volume of 10 μL. Fabricator™-digested samples were washed trice with milliQ using an Amicon Ultra-0.5, Ultracel-10 Membrane (Millipore) resulting in a final sample volume of approximately 40 μL. The Fc/2 fragment was analyzed by electrospray ionization time-of-flight (ESI-TOF) on a JEOL AccuTOF. Deconvoluted spectra were obtained using Magtran software.
A set of Gal-T 1 mutants encoding residues 74-402 of bovine Gal-T 1 were transiently expressed in CHO K1 cells by Evitria (Zurich, Switzerland) which include the Gal-T1 single mutants Y289L (represented by SEQ ID NO: 26), Y289F (represented by SEQ ID NO: 27), Y289M (represented by SEQ ID NO: 28), Y289V (represented by SEQ ID NO: 29), Y289A (represented by SEQ ID NO: 30), and Y289G (represented by SEQ ID NO: 31), and the Gal-T1 double mutants Y289L,C342T (represented by SEQ ID NO: 32), and Y289M,C342T (represented by SEQ ID NO: 33). The mutants were purified using a cation exchange column (Source 15S HR16/10 column, GE Healthcare) as described above. Purified proteins were analyzed by SDS-PAGE. […]

Assay [2] addresses T2, Gal-T1(Y289M) (Bos taurus, UniProt P08037, I205M/L206V/P187L/V158I/Y289M).
T2 construct: host or cells: CHO K1
T2 sequence (P08037 74-402 V158I/P187L/I205M/L206V/Y289M): T1 sequence (P08037 74-402 V158I/P187L/I205M/L206V/Y289M/C342T) with T269C
Put plainly: Glycosyltransfer to trimmed trastuzumab with Gal-T1(Y289M) expressed in CHO. To be noted: trimmed trastuzumab 10 mg/mL; UDP derivative 5 mM; enzyme 0.5 mg/mL; pH 8.0, 30° C. overnight. The source says:
(§1) A set of Gal-T 1 mutants encoding residues 74-402 of bovine Gal-T 1 were transiently expressed in CHO K1 cells by Evitria (Zurich, Switzerland) which include the Gal-T1 single mutants Y289L (represented by SEQ ID NO: 26), Y289F (represented by SEQ ID NO: 27), Y289M (represented by SEQ ID NO: 28), Y289V (represented by SEQ ID NO: 29), Y289A (represented by SEQ ID NO: 30), and Y289G (represented by SEQ ID NO: 31), and the Gal-T1 double mutants Y289L,C342T (represented by SEQ ID NO: 32), and Y289M,C342T (represented by SEQ ID NO: 33). The mutants were purified using a cation exchange column (Source 15S HR16/10 column, GE Healthcare) as described above. Purified proteins were analyzed by SDS-PAGE.
(§2) Trimmed trastuzumab (10 mg/mL, […] obtained by Endo S treatment of trastuzumab, was incubated with the 4-azido-3,5-difluorobenzoyl derivative of UDP-galactosamine (23, 5 mM) and one of the Gal-T1 single mutants Y289L, Y289M, Y289A or Y289G (expressed in CHO as described above) (0.5 mg/mL) in 10 mM MnCl2 and 25 mM Tris-HCl pH 8.0 at 30° C. overnight. Mass spectral analysis of the reduced sample indicated a partial conversion of the core GlcNac(Fuc)-substituted trastuzumab heavy chain (49504 Da) into product 30 (49818 to 49825 Da, 20 to 50% of total heavy chain depending on the Gal-T1 mutant used), resulting from transfer of 23 to core GlcNAc(Fuc)-substituted trastuzumab heavy chain. […]

In assay [3] the target is T3, Gal-T1(Y289A) (Bos taurus, UniProt P08037, I205M/L206V/P187L/V158I/Y289A).
T3 construct: host or cells: CHO K1
T3 sequence (P08037 74-402 V158I/P187L/I205M/L206V/Y289A): T1 sequence (P08037 74-402 V158I/P187L/I205M/L206V/Y289M/C342T) with M216A, T269C
Put plainly: Glycosyltransfer to trimmed trastuzumab with Gal-T1(Y289A) expressed in CHO. To be noted: trimmed trastuzumab 10 mg/mL; UDP derivative 5 mM; enzyme 0.5 mg/mL; pH 8.0, 30° C. overnight.
Text: as §1, §2

As to `[N-]=[N+]=Nc1c(F)cc(C(=O)N[C@H]2[C@@H](OP(=O)(O)OP(=O)(O)OC[C@H]3O[C@@H](n4ccc(=O)[nH]c4=O)[C@H](O)[C@@H]3O)O[C@H](CO)[C@H](O)[C@@H]2O)cc1F` [Compound 23, 4-azido-3,5-difluorobenzoyl Derivative of UDP-GalNH2], the “conversion of core GlcNAc(Fuc)-substituted trastuzumab into product” value in assay [1] is “complete conversion”. Moreover, the results for the observed conversion result in assay [2] and in assay [3] were “approximately 50%” and “approximately 20%”, respectively.
